The source of these data is US20230190694A1, “COMPOSITIONS FOR AND METHODS OF PRECISION CANCER TREATMENT” (priority 2021, published 2023).

Data set [1] concerns mutated and amplified genes (ctDNA) in blood. Put plainly: Molecular response by repeated Guardant 360 tests (ctDNA in blood). It counts as in vivo, human. The note with it: individual patients; genes named in the cited cell or block. As for the experimental part: Molecular response was determined by repeated Guardant 360 tests. […] Herein, blood samples were collected from patients and provided to Guardant for panel testing wherein a “panel” was defined as five or more ctDNA genes or gene mutation variants tested on the same day on the same member by the same rendering provider (i.e., Guardant).

In data set [2] the test system is Uncommon Cancers (Neoplastic Disorders). Put plainly: Patients with uncommon cancers treated with AS2-1 in combination with other drugs: response and survival. Format: in vivo, human. The following applies: GIST patient, before the combination of AS and sunitinib. On the procedure:
Patients diagnosed with 34 types of terminal cancer were treated with Antineoplaston AS2-1 (AS) therapy to reduce and/or abolish tumors and other signs of cancer and reduce and/or abolish expression of cancer-causing genes. In brief, patients admitted for treatment herein were diagnosed with terminal, Stage IV, cancers of varying types with multiple metastases and had failed standard-of-care regimens, except for a small number of patients who were treatment naive, but were not candidates for standard treatment because of very advanced disease and less than 6 months life expectancy. The estimated survival for these patients was from less than one to less than 6 months. The patients had radiological evidence of advanced metastatic cancer performed within 4 weeks from treatment start and genomic analysis, usually ordered at admission, including Guardant 360 blood test and/or Foundation One and/or Tempus blood or tissue test and/or SEMA4 tissue test. […]
At baseline, history taking, physical examination, necessary laboratory, genomic and radiological evaluations were performed. Two largest perpendicular diameters of the radiologically significant lesions were measured including MRI contrast-enhanced lesions in the brain and spinal cord. […] Mixed response was determined when there was a CR or PR of some lesions and PD of the other lesions. […]

The next data set can be described thus: Solubility in water. It counts as physicochemical.

With `CCc1cc2c(cc1N1CCC(N3CCOCC3)CC1)C(C)(C)c1[nH]c3cc(C#N)ccc3c1C2=O` [alectinib], the “Genes affected by AS / molecular response: status of mutated or amplified genes in follow-up blood genomic analysis” value in data set [1] is listed as “Elimination of the ALK fusion”.
For the compound `Cc1ccc(NC(=O)c2ccc(CN3CCN(C)CC3)cc2)cc1Nc1nccc(-c2cccnc2)n1` [imatinib], the “response to prior targeted therapy” value in data set [2] is “failed to respond”.
Take `C=CC(=O)Nc1cc(Nc2nccc(-c3cn(C)c4ccccc34)n2)c(OC)cc1N(C)CCN(C)C` [osimertinib]: in data set [1], the “Genes affected by AS / molecular response: status of mutated or amplified genes in follow-up blood genomic analysis” value is reported as “elimination of the two EGFR mutations”.
On to `NC(=O)C(CCC(=O)[O-])NC(=O)Cc1ccccc1.[Na+]` (stereo not shown) [Iso-PG, phenylacetylisoglutaminate sodium], for which the solubility in water result in the data set “Solubility in water” is recorded as “soluble in water”.
